Experimental data as given in doi:10.1101/2023.05.15.540887, “Comparative analysis of drug-like EP300/CREBBP acetyltransferase inhibitors” (bioRxiv, 2023).
Where two headings read alike, the source gives them in different places.

Legend:
NCI-60 cell line panel = test: NCI-60 cell line screen growth inhibition (sulforhodamine B), whole panel; format: cell-based, human; conditions: compared among 1-3
Text: In principle the phenotype elicited by any single small molecule can be due to either an on- or off-target effect; however, if multiple chemically distinct small molecules designed to target a single gene all elicit the same phenotype, one’s confidence in their on-target mechanism becomes greater. As such, we sought to apply our knowledge of the comparative potencies of 1-3 to test whether the simplest phenotype caused by EP300/CREBBP inhibitors – cell death – was consistent with their effects on histone acetylation and a putative on-target mechanism. […] Subsequently, the COMPARE algorithm was used to compare the patterns of growth inhibition elicited by 1-3 in the NCI-60 assay against the >150,000 compounds analyzed in the screen to date.[29] […] Finally, the specificity of CPI-1612 (3) was directly assessed using quantitative LC-MS analysis of histone acetylation in treated cells,[33] focusing on four abundant histone acetylation markers whose writers are well-characterized: H3K9Ac (written by KAT2A/B), H3K14Ac (KAT7), H3K18Ac (EP300/CREBBP), and H3K23Ac (KAT6A/B; Fig. 3e).[26] […]

HL-60(TB) = test: NCI-60 growth inhibition (sulforhodamine B); format: cell-based, human; conditions: HL-60(TB) (Leukemia), negative log of Molar conc., LCONC -8
HOP-62 = test: NCI-60 growth inhibition (sulforhodamine B); format: cell-based, human
HCT-116 = test: NCI-60 growth inhibition (sulforhodamine B); format: cell-based, human; conditions: HCT-116 (Colon Cancer), negative log of Molar conc., LCONC -8
SK-MEL-2 = test: NCI-60 growth inhibition (sulforhodamine B); format: cell-based, human; conditions: SK-MEL-2 (Melanoma), negative log of Molar conc., LCONC -8
SK-MEL-28 = test: NCI-60 growth inhibition (sulforhodamine B); format: cell-based, human; conditions: SK-MEL-28 (Melanoma), negative log of Molar conc., LCONC -8
SK-OV-3 = test: NCI-60 growth inhibition (sulforhodamine B); format: cell-based; conditions: Homo sapiens, SK-OV-3, Ovarian Cancer, negative log of Molar value, LCONC -8, EXPID 2301NS84
CAKI-1 = test: NCI-60 growth inhibition (sulforhodamine B); format: cell-based; conditions: Homo sapiens, CAKI-1, Renal Cancer, negative log of Molar value, LCONC -8, EXPID 2301NS84
SN12C = test: NCI-60 growth inhibition (sulforhodamine B); format: cell-based; conditions: Homo sapiens, Renal Cancer, negative log of Molar value
[1] = Homo sapiens, read-out: GI50 NLOGVALUE (converted)
[2] = Homo sapiens, read-out: IC50 NLOGVALUE (converted)
[3] = Homo sapiens, read-out: LC50 NLOGVALUE
[4] = Homo sapiens, read-out: IC50 NLOGVALUE

C[C@H](CN[C@@H](C(=O)Nc1ccc(-c2cnn(C)c2)cn1)c1ccccc1)c1ccc(C#N)cc1 [CPI-1612]
inhibition of cell growth, NCI-60 screen (NCI-60 cell line panel): most potent inhibitor of cell growth
TGI NLOGVALUE (HL-60(TB)): 4.6
GI50 (HL-60(TB); [1]): 0.0132 µM
IC50 (HL-60(TB); [2]): 15.5 µM
CC50 (HL-60(TB); [3]): > 100 µM
TGI NLOGVALUE (HOP-62; HOP-62 (Non-Small Cell Lung Cancer), negative log of Molar conc., LCONC -8): 4
GI50 (HOP-62; Homo sapiens, HOP-62, read-out: GI50 AVGDATA (converted)): 1.95 µM
GI50 (HOP-62; Homo sapiens, HOP-62 (Non-Small Cell Lung Cancer), negative log of Molar conc., LCONC -8, read-out: GI50 NLOGVALUE (converted)): 1.91 µM
IC50 (HOP-62; Homo sapiens, HOP-62 (Non-Small Cell Lung Cancer), negative log of Molar conc., LCONC -8, read-out: IC50 NLOGVALUE): > 100 µM
CC50 (HOP-62; Homo sapiens, HOP-62 (Non-Small Cell Lung Cancer), negative log of Molar conc., LCONC -8, read-out: LC50 NLOGVALUE): > 100 µM
TGI NLOGVALUE (HCT-116): 4
GI50 (HCT-116; [1]): 11.2 µM
IC50 (HCT-116; [2]): 18.6 µM
CC50 (HCT-116; [3]): > 100 µM
GI50 (SK-MEL-2; [1]): 0.851 µM
IC50 (SK-MEL-2; [4]): > 100 µM
CC50 (SK-MEL-2; [3]): > 100 µM
TGI NLOGVALUE (SK-MEL-2): 4
GI50 (SK-MEL-28; [1]): 14.1 µM
IC50 (SK-MEL-28; [4]): > 100 µM
CC50 (SK-MEL-28; [3]): > 100 µM
TGI NLOGVALUE (SK-MEL-28): 4
GI50 (SK-OV-3; read-out: GI50 NLOGVALUE): > 100 µM
IC50 (SK-OV-3; read-out: IC50 NLOGVALUE): > 100 µM
CC50 (SK-OV-3; read-out: LC50 NLOGVALUE): > 100 µM
GI50 (CAKI-1; read-out: GI50 NLOGVALUE): < 0.01 µM
CC50 (CAKI-1; read-out: LC50 NLOGVALUE): > 100 µM
GI50 (SN12C; LCONC -8, EXPID 2301NS84, read-out: GI50 NLOGVALUE (converted)): 0.224 µM
IC50 (SN12C; LCONC -8, EXPID 2301NS84, read-out: IC50 NLOGVALUE): > 100 µM
CC50 (SN12C; LCONC -8, EXPID 2301NS84, read-out: LC50 NLOGVALUE): > 100 µM
